49 compounds from US11542233B2, “Compounds, compositions and methods of use” (Aquinnah Pharmaceuticals, Inc., priority 2016, dated 2023) can be followed below.

As a reminder, the IC50 is the midpoint of a concentration-inhibition curve.

The experiment has as its system TDP-43 aggregation in PC12 cells stably expressing GFP-tagged mutant TDP-43 (TDP-43^Q33IK::eGFP). The experiment can be described thus: In vitro efficacy assay: inhibition of TDP-43 inclusions, concentration-response, fluorescence microscopy. The following applies: Rattus norvegicus, PC-12, PC12 cells, 1 hour pre-treatment, 15 μM sodium arsenite for 23 hours, 10-point dose response curve. It counts as cell-based. On the procedure: Exemplary compounds of the invention were evaluated for efficacy in inhibiting TDP-43 inclusions using a concentration-response assay. Briefly, PC12 cells stably expressing a GFP-tagged mutant form of TDP-43 (TDP-43^Q33IK::eGFP) were pre-treated for 1 hour with exemplary compounds and stressed with 15 μM sodium arsenite for 23 hours to induce TDP-43 aggregation. The inhibitory effect on TDP-43 aggregation was measured using fluorescence microscopy. The ratio of cells with TDP-43 aggregates was calculated based on the total number of cells with detectable GFP expression. In the table, “A” indicates an IC50 of less than 100 nM, “B” indicates an IC50 range from 100 nM to 500 nM; “C” indicates an IC50 range from 500 nM to 2 μM; and “D” indicates an IC50 greater than 2 μM.
Regarding `O=C(c1cc2ccccc2[nH]1)N(CC(F)(F)F)[C@H]1CCC[C@@H](NCC2CCOCC2)C1` [Compound 183], the half-maximal inhibitory concentration (IC50) is > 2000 nM. As to `CCN(C(=O)c1cc2ccccc2[nH]1)[C@H]1CCC[C@@H](NC(=O)c2ccccc2)C1` [Compound 200, N-((1S,3R)-3-benzamidocyclohexyl)-N-ethyl-1H-indole-2-carboxamide], the IC50 was > 2000 nM. The value for `CCN(C(=O)c1cc2ccccc2[nH]1)[C@H]1COC[C@@H](NCc2ccccc2)C1` [Compound 300, N-((3R,5S)-5-(benzylamino)tetrahydro-2H-pyran-3-yl)-N-ethyl-1H-indole-2-carboxamide] was 100 to 500 nM.

For the compound `CCN(C(=O)c1cc2ccccc2[nH]1)[C@H]1COC[C@H](NCc2ccccc2)C1` [Compound 301, N-((3R,5R)-5-(benzylamino)tetrahydro-2H-pyran-3-yl)-N-ethyl-1H-indole-2-carboxamide], the IC50 was > 2000 nM. The same measure for `O=C(c1cc2ccccc2[nH]1)N(CC(F)(F)F)[C@H]1COC[C@@H](NCc2ccccc2)C1` [Compound 302]: 100 to 500 nM. The same measure for `O=C(c1cc2ccccc2[nH]1)N(CC(F)(F)F)[C@H]1COC[C@H](NCc2ccccc2)C1` [Compound 303]: > 2000 nM. The same measure for `C#Cc1ccc(C(=O)c2cccc(CN[C@@H]3CCC[C@H](N(CC)C(=O)c4cc5ccccc5[nH]4)C3)c2)cc1` [Compound 312, N-ethyl-N-((1S,3R)-3-((3-(4-ethynylbenzoyl)benzyl)-amino)cyclohexyl)-1H-indole-2-carboxamide]: 500 to 2000 nM; for `CCN(C(=O)c1cc2ccccc2[nH]1)[C@@H]1C[C@H](NCc2ccccc2)CS(=O)(=O)C1` [Compound 313, N-((3R,5S)-5-(benzylamino)-1,1-dioxidotetrahydro-2H-thiopyran-3-yl)-N-ethyl-1H-indole-2-carboxamide]: > 2000 nM. Consider `CCN(C(=O)c1cc2ccccc2[nH]1)[C@@H]1C[C@@H](NCc2ccccc2)CS(=O)(=O)C1` [Compound 314, N-((3R,5R)-5-(benzylamino)-1,1-dioxidotetrahydro-2H-thiopyran-3-yl)-N-ethyl-1H-indole-2-carboxamide], for which the half-maximal inhibitory concentration (IC50) was > 2000 nM. The value for `CCN(C(=O)c1cc2ccccc2[nH]1)[C@H]1CCC[C@@H](NCc2cccc(N=[N+]=[N-])c2)C1` [Compound 316, N-((1S,3R)-3-((3-azidobenzyl)amino)cyclohexyl)-N-ethyl-1H-indole-2-carboxamide] was < 100 nM; that for `CCN(C(=O)c1cc2ccccc2[nH]1)[C@H]1CCC[C@@H](NCc2ccc(N=[N+]=[N-])cc2)C1` [Compound 317] was < 100 nM; that for `CCN(C(=O)c1cc2ccccc2[nH]1)[C@H]1CCC[C@@H](NC2(c3ccccc3)COC2)C1` [Compound 318, N-ethyl-N-((1S,3R)-3-((3-phenyloxetan-3-yl)amino)cyclohexyl)-1H-indole-2-carboxamide] was 500 to 2000 nM.

Turning to `CCN(C(=O)c1nc2ccccc2[nH]1)[C@H]1CCC[C@@H](NCc2ccccc2)C1` [Compound 400, N-((1S,3R)-3-(benzylamino)cyclohexyl)-N-ethyl-1H-benzo[d]imidazole-2-carboxamide], the IC50 is < 100 nM. The same measure for `CCN(C(=O)c1cc2cnccc2[nH]1)[C@H]1CCC[C@@H](NCc2ccccc2)C1` [Compound 401]: 100 to 500 nM. The same measure for `CCN(C(=O)c1[nH]c2ccccc2c1C)[C@H]1CCC[C@@H](NCc2ccccc2)C1` [Compound 402]: < 100 nM; for `CCN(C(=O)c1cc2ccncc2[nH]1)[C@H]1CCC[C@@H](NCc2ccccc2)C1` [Compound 403]: 100 to 500 nM.

In the case of `CCN(C(=O)c1ccccn1)[C@H]1CCC[C@@H](NCc2ccccc2)C1` [Compound 404], the half-maximal inhibitory concentration (IC50) was > 2000 nM. The value for `CCN(C(=O)c1ccccc1)[C@H]1CCC[C@@H](NCc2ccccc2)C1` [Compound 405] was > 2000 nM. The value for `CCN(C(=O)c1cc2ncccc2[nH]1)[C@H]1CCC[C@@H](NCc2cccc(N=[N+]=[N-])c2)C1` [Compound 406, N-((1S,3R)-3-((3-azidobenzyl)amino)cyclohexyl)-N-ethyl-1H-pyrrolo[3,2-b]pyridine-2-carboxamide] was < 100 nM; that for `CCN(C(=O)c1cc2ncccc2[nH]1)[C@H]1CCC[C@@H](NCc2ccc(N=[N+]=[N-])cc2)C1` [Compound 407] was < 100 nM. The same measure for `CCN(C(=O)c1cc2ncccc2[nH]1)[C@H]1CCC[C@@H](NC(C)(C)c2ccc(OC)cc2)C1` [Compound 408]: < 100 nM.

Regarding `CCN(C(=O)c1cc2ncccc2[nH]1)[C@H]1CCC[C@H](NC(C)(C)c2ccc(OC)cc2)C1` [Compound 409], the IC50 fell in the range of 500 to 2000 nM. The value for `CCN(C(=O)c1cc2ncccc2[nH]1)[C@H]1CCC[C@@H](NC(C)(C)c2ccc(F)cc2)C1` [Compound 410] was < 100 nM. The same measure for `CCN(C(=O)c1cc2ncccc2[nH]1)[C@H]1CCC[C@H](NC(C)(C)c2ccccc2)C1` [Compound 411]: < 100 nM; for `CCN(C(=O)c1cc2ccccc2[nH]1)[C@H]1CCC[C@@H](N[C@H](c2ccccc2)C(F)(F)F)C1` [Compound 414]: 500 to 2000 nM; for `CCN(C(=O)c1cc2ccccc2[nH]1)[C@H]1CCC[C@@H](N[C@@H](c2ccccc2)C(F)(F)F)C1` [Compound 415]: > 2000 nM. Take `CCN(C(=O)c1cc2ncccc2[nH]1)[C@H]1CCC[C@@H](NC2(c3ccccc3)CC2)C1` [Compound 418, N-ethyl-N-((1S,3R)-3-((1-phenylcyclopropyl)amino)cyclohexyl)-1H-pyrrolo[3,2-b]pyridine-2-carboxamide]: the IC50 was 100 to 500 nM.

Regarding `CCN(C(=O)c1cc2ccccc2[nH]1)[C@H]1CCC[C@@H](NC2(c3ccccc3)CC2)C1` [Compound 419], the IC50 is 100 to 500 nM. The value for `CCN(C(=O)c1cc2ncccc2[nH]1)[C@H]1CCC[C@H](NC2(c3ccccc3)CC2)C1` [Compound 420] was 500 to 2000 nM. The same measure for `CCN(C(=O)c1cc2ccccc2[nH]1)[C@H]1CCC[C@H](NC2(c3ccccc3)CC2)C1` [Compound 421]: > 2000 nM; for `O=C(c1cc2ncccc2[nH]1)N(CC(F)(F)F)[C@H]1CCC[C@@H](NCc2cccc(F)c2)C1` [Compound 422, N-((1S,3R)-3-((3-fluorobenzyl)amino)cyclohexyl)-N-(2,2,2-trifluoroethyl)-1H-pyrrolo[3,2-b]pyridine-2-carboxamide]: < 100 nM. The same measure for `O=C(c1cc2ncccc2[nH]1)N(CC(F)(F)F)[C@H]1CCC[C@@H](NCc2ccc(F)cc2)C1` [Compound 423]: < 100 nM; for `COc1ccc(C(C)(C)N[C@@H]2CCC[C@H](N(CC(F)(F)F)C(=O)c3cc4ncccc4[nH]3)C2)cc1` [Compound 424, N-((1S,3R)-3-((2-(4-methoxyphenyl)propan-2-yl)amino)cyclohexyl)-N-(2,2,2-trifluoroethyl)-1H-pyrrolo[3,2-b]pyridine-2-carboxamide]: < 100 nM; for `C#CCCC1(CCOc2ccc(CN[C@@H]3CCC[C@H](N(CC)C(=O)c4cc5ccccc5[nH]4)C3)cc2)N=N1` [Compound 425, N-((1S,3R)-3-((4-(2-(3-(but-3-yn-1-yl)-3H-diazirin-3-yl)ethoxy)benzyl)amino)cyclohexyl)-N-ethyl-1H-indole-2-carboxamide]: 100 to 500 nM. `C#CCCC1(CCOc2cccc(CN[C@@H]3CCC[C@H](N(CC)C(=O)c4cc5ccccc5[nH]4)C3)c2)N=N1` [Compound 426]: the IC50 was < 100 nM.

Consider `CCN(C(=O)c1cc2ccccc2[nH]1)[C@H]1CCC[C@@H](NCc2cccc(O)c2)C1` [Compound 427], for which the IC50 was < 100 nM. Regarding `CCN(C(=O)c1cc2ccccc2[nH]1)[C@H]1CCC[C@@H](NCc2ccc(O)cc2)C1` [Compound 428], the IC50 was < 100 nM.

Turning to `CCN(C(=O)c1cc2ccccc2[nH]1)[C@H]1CCC[C@@H](NCc2ccc(OC(F)(F)F)cc2)C1` [Compound 429], the IC50 is < 100 nM. The value for `CCN(C(=O)c1cc2ccccc2[nH]1)[C@H]1CCC[C@@H](NCc2cccc(OC(F)(F)F)c2)C1` [Compound 430] was < 100 nM; that for `CCN(C(=O)c1cc2ccccc2[nH]1)[C@H]1CCC[C@@H](NCc2cccc(S(C)(=O)=O)c2)C1` [Compound 431] was < 100 nM. Take `CCN(C(=O)c1cc2ccccc2[nH]1)[C@H]1CCC[C@@H](NCc2ccc(S(C)(=O)=O)cc2)C1` [Compound 432]: the IC50 is 100 to 500 nM.

In the case of `CCN(C(=O)c1cc2ccccc2[nH]1)[C@H]1CCC[C@@H](NCc2cc3cc(F)ccc3o2)C1` [Compound 433], the concentration for half-maximal inhibition (IC50) was < 100 nM.

As to `CCN(C(=O)c1cc2ncccc2[nH]1)[C@H]1CCC[C@@H](NCc2ccnc(O)c2)C1` [Compound 434], the half-maximal inhibitory concentration (IC50) was > 2000 nM.

With `CCN(C(=O)c1cc2ncccc2[nH]1)[C@H]1CCC[C@@H](NCc2cc(C3CC3)no2)C1` [Compound 435], the IC50 was < 100 nM. For the compound `CCN(C(=O)c1cc2ncccc2[nH]1)[C@H]1CCC[C@@H](NCc2cc(C3CC3)on2)C1` [Compound 436], the IC50 is < 100 nM. The value for `CCN(C(=O)c1cc2ncccc2[nH]1)[C@H]1CCC[C@@H](NCc2cc(C)no2)C1` [Compound 437] was < 100 nM; that for `CCN(C(=O)c1cc2ncccc2[nH]1)[C@H]1CCC[C@@H](NCc2cnoc2)C1` [Compound 438] was > 2000 nM; that for `CCN(C(=O)c1cc2ncccc2[nH]1)[C@H]1CCC[C@@H](NCc2nnc(C)s2)C1` [Compound 439] was > 2000 nM. The value for `CCN(C(=O)c1cc2ncccc2[nH]1)[C@H]1CCC[C@@H](NCc2ccnc(OC)c2)C1` [Compound 440] was < 100 nM.
